Assay results reported in patent US10392363B2, “Methods for treating protozoan infections” (Neoculi Pty Ltd., priority 2014, dated 2019).

Legend:
[1] = test system: Giardia duodenalis trophozoites; experiment: Resazurin reduction assay (Example 3); assay type: cell-based; settings: 42 hours, then 6 hours with Alamarblue
Method: Giardia trophozoites were grown until confluent. The media was replaced with fresh media and they were cold shocked for 40 minutes (as above). Cells were diluted to a concentration of ˜500 000 cells/ml and 100 μl were added to each well of the assay plate (except media only control). The assay was incubated in an anaerobic environment (candle jar) for 42 hours at 37° C. […] After incubation the absorbance of each sample was read at 570 and 630 nm. The percent reduction of resazurin (Alamarblue™) was calculated and data was analysed with GraphPad Prism v6 software. Assay set-up: the assay was performed in 96 well plates in a total volume of 200 μl. 100 μl of NCL812 or NCL062 (concentration of 25.6 mg/ml in DMSO) or metronidazole (concentration 5 mg/ml in DMSO) stock was added to 9.9 ml of TYI-S-33 medium, then serially diluted 1:2 in the same medium. Cells were added as above.

[2] = Release from Formulation B (Franz diffusion cells); assay type: physicochemical; settings: absolute ethanol receptor, 32° C., up to 24 hours
Method: Franz diffusion cells were utilized to quantify the release rate of NCL 812 and NCL099 from its topical formulations. Five milliliters of absolute ethanol, which was chosen as the desired release medium, was loaded into the receptor chamber. Temperature of the receptor fluid was kept constant, at 32±1° C. using a water jacket. Acetyl cellulose membranes, with pore size of 0.45 μm (Pall Corporation) was selected and placed between donor and receptor chamber. Followed by that, a number of test samples (Formulation B) was loaded into the donor chamber. One milliliter of receptor fluid was collected at regular time intervals of 0.25, 0.50, 0.75, 1, 2, 3, 4, 5, 6, 7, 8 and 24 hours through the sampling port. One milliliter of fresh absolute ethanol was immediately returned to the receptor chamber. UV-HPLC was utilized to analyse the content of the receptor fluids attained.

[3] = Microsomal stability, human; assay type: in vitro ADME; settings: human, 1 μM
Method: (§1) Incubation methods: The metabolic stability assay was performed by incubating each test compound (at 1 μM) with human and mouse liver microsomes (Xenotech, Lot#1210057 and 1310211, respectively) at 37° C. and 0.4 mg/mL protein concentration. The metabolic reaction was initiated by the addition of an NADPH-regenerating system (i.e. NADPH is the cofactor required for CYP450-mediated metabolism) and quenched at various time points over a 60 minute incubation period by the addition of acetonitrile containing diazepam as internal standard. Control samples (containing no NADPH) were included (and quenched at 2, 30 and 60 minutes) to monitor for potential degradation in the absence of cofactor. Analytical conditions: Instrument: Waters Micromass Xevo G2 QTOF coupled to a Waters Acquity UPLC; Detection: Positive electrospray ionisation under MSE mode; Cone Voltage 30 V; Column: Ascentis Express Amide column (50×2.1 mm, 2.7 μm); LC conditions: Gradient cycle time: 4 minutes; Injection volume: 5 μL; Flow rate: 0.4 mL/min; Mobile phase: Acetonitrile-water gradient with 0.05% formic acid Metabolite; Identification: A metabolite screen was not included in this study, however, since data was acquired using MSE mode, which allows for the simultaneous acquisition of low and high collision energy MS spectra, a post-hoc metabolite search may be conducted at a later date if warranted. […]

[4] = Microsomal stability, mouse; assay type: in vitro ADME; settings: mouse, 1 μM
Method: as §1

What does the source list for `N=C(N/N=C/c1ccc(Cl)cc1)N/N=C/c1ccc(Cl)cc1` [NCL812, 1,3-bis[(E)-(4-chlorophenyl)methyleneamino]guanidine]?
metabolic activity of the trophozoites (percentage of reduction of resazurin) [1]: reduction in the metabolic activity; release profile from Formulation B [2]: acceptable release profile; predicted hepatic extraction ratio (EH) [3]: < 0.3; predicted hepatic extraction ratio (EH) [4]: < 0.3
